Reference: ChEMBL document CHEMBL5338750, “Design of Sonosensitizers Integrated with Resveratrol Motif for Synergetic Sonodynamic Therapy and Nuclear Factor Kappa B Transcription Suppression of Breast Cancer” (J Med Chem, 2023)
Calls of active or inactive are those of the source. No cut-off for these calls is given here.

Experiments:
[1] = system: MCF7; experiment: Cytotoxicity against human MCF7 cells assessed as inhibition of cell growth preincubated for 72 hrs followed by ultrasonic sound treatment for 30 sec by MTT assay; assay type: functional, cell-based; settings: for Activity: time 259230.0 sec
[2] = system: MCF7; experiment: Induction of apoptosis in human MCF7 cells at 10 uM incubated for 24 hrs by Annexin V-FITC/propidium iodide double staining based flow cytometry analysis; assay type: functional, cell-based
[3] = Toxicity in BALB/c mouse xenografted with human MCF7 cells assessed as liver damage at 1.2 mg/kg, iv administered for 10 days and measured immediately by Hand E staining based analysis; assay type: organism-based; settings: in vivo, 240 h, time 10 day
[4] = system: MCF7; experiment: Sono-cytotoxicity against human MCF7 cells assessed as inhibition of cell growth preincubated for 4 hrs followed by ultrasonic sound treatment for 5 mins by MTT assay; assay type: functional, cell-based
[5] = Drug uptake in BALB/c mouse limb xenografted with human MCF7 cells assessed as accumulation of red fluorescence at 1.5 mg/kg, iv measured at 6 hrs by fluorescence imaging analysis; assay type: ADME, organism-based; settings: in vivo
[6] = system: MCF7; experiment: Induction of apoptosis in human MCF7 cells assessed as early apoptotic cells preincubated for 4 hrs followed by ultrasonic sound treatment for 30 sec and measured after 24 hrs by Annexin V-FITC/propidium iodide double staining based flow cytometry analysis (reference value: 1.83 %); assay type: functional; settings: 28 h
[7] = system: MCF7; experiment: Effect of p38 protein level in human MCF7 cells at 10 uM measured for 24 hrs by ELISA analysis; assay type: functional, cell-based
[8] = biological target: Nuclear factor NF-kappa-B complex (Homo sapiens) (UniProt Q00653+P19838+Q04206); experiment: Inhibition of H2O2-induced NFkappaB activation in human MCF7 cells at 1 uM measured for 12 hrs by ELISA analysis; assay type: cell-based
Sequence of Nuclear factor NF-kappa-B complex (Homo sapiens) (P19838 whole entry, looked up): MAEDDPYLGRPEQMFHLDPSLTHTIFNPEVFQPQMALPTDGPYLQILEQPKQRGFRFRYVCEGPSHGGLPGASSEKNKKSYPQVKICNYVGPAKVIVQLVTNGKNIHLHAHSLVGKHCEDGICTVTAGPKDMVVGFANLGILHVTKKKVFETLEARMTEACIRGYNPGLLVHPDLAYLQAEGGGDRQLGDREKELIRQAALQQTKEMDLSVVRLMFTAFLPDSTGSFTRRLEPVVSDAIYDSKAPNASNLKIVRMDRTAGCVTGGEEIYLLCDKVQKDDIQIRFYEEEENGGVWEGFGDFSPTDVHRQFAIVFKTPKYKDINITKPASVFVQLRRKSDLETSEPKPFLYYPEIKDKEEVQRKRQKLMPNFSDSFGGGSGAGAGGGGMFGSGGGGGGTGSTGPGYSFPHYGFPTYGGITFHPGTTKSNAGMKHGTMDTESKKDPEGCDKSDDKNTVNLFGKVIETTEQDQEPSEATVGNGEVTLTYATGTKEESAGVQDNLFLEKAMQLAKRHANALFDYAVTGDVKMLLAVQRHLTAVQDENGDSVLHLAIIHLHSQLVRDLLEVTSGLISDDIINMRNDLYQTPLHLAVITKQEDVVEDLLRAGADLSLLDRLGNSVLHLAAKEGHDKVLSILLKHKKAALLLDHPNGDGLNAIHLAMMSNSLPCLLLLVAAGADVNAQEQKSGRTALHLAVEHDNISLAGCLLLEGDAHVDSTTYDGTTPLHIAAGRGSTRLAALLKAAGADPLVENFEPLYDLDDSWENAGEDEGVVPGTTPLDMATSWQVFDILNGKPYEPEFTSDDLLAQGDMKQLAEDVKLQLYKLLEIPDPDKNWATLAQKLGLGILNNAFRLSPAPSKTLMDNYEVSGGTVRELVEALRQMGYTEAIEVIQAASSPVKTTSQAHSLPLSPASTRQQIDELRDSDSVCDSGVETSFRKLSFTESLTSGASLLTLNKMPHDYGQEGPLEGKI
Sequence of Nuclear factor NF-kappa-B complex (Homo sapiens) (Q00653 whole entry, looked up): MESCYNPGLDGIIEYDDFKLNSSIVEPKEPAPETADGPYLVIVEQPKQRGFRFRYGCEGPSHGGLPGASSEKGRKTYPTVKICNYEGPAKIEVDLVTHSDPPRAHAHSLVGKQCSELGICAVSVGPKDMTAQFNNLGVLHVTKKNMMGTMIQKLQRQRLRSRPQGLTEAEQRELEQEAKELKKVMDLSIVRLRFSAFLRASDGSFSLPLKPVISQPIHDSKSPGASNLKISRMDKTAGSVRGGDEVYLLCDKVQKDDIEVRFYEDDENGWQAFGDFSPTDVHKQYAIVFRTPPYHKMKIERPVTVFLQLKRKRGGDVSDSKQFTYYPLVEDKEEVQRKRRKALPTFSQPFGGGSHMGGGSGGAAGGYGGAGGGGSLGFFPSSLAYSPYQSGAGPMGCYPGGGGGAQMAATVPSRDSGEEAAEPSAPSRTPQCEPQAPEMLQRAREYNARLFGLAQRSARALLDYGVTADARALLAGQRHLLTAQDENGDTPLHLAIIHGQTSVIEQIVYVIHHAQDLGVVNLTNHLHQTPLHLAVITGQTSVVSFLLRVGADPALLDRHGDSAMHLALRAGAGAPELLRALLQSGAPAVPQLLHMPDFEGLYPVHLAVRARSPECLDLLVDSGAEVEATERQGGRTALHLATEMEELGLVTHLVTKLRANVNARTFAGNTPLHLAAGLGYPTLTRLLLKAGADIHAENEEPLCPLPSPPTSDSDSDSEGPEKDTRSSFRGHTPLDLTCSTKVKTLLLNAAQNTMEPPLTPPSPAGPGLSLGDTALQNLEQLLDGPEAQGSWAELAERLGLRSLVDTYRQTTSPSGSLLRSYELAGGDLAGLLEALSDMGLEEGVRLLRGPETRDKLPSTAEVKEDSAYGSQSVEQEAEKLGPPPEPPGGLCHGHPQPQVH
Sequence of Nuclear factor NF-kappa-B complex (Homo sapiens) (Q04206 whole entry, looked up): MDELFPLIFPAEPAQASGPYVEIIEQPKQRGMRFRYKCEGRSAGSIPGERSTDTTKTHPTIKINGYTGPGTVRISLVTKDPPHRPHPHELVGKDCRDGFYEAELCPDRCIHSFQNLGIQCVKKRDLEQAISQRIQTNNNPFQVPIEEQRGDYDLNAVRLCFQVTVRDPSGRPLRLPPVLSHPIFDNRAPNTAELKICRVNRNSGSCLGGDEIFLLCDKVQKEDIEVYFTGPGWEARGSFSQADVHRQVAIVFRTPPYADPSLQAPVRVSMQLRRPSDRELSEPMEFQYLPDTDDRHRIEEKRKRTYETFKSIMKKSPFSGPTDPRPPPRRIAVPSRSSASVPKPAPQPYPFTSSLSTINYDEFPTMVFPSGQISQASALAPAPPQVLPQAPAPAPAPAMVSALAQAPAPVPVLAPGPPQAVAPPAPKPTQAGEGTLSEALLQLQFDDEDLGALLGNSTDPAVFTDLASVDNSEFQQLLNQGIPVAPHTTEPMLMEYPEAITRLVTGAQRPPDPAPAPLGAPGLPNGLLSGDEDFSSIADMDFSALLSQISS

[9] = system: MCF7; experiment: Induction of ROS generation in human MCF7 cells assessed as […] preincubated for 4 hrs followed by ultrasonic sound treatment for 30 sec by DCFH-DA dye based inverted microscopy; assay type: functional, cell-based; settings: time 14430.0 sec
[10] = system: MCF7; experiment: Sono-cytotoxicity against human MCF7 cells assessed as inhibition of cell growth preincubated for 4 hrs followed by ultrasonic sound treatment for 2 mins by MTT assay; assay type: functional, cell-based
[11] = system: MCF7; experiment: Antitumor activity against human MCF7 cells xenografted in BALB/c mouse assessed as tumor growth inhibition at 1.5 mg/kg, iv administered for 10 days followed by ultrasonic sound treatment for 2 to 6 hrs and measured immediately; assay type: functional; settings: time 242-246 hrs, read-out: TGI
[12] = system: MCF7; experiment: Effect of TNF-alpha protein level in human MCF7 cells at 10 uM measured for 24 hrs by ELISA analysis; assay type: functional, cell-based
[13] = system: MCF7; experiment: Induction of apoptosis in human MCF7 cells assessed as late apoptotic cells preincubated for 4 hrs followed by ultrasonic sound treatment for 30 sec and measured after 24 hrs by Annexin V-FITC/propidium iodide double staining based flow cytometry analysis (reference value: 0 %); assay type: functional; settings: 28 h
[14] = Toxicity in BALB/c mouse xenografted with human MCF7 cells assessed as kidney damage at 1.2 mg/kg, iv administered for 10 days followed by ultrasonic sound treatment for 2 to 6 hrs and measured immediately by Hand E staining based analysis; assay type: organism-based; settings: in vivo, time 242-246 hrs
[15] = system: MCF7; experiment: Cytotoxicity against human MCF7 cells assessed as inhibition of cell growth incubated for 72 hrs by MTT assay; assay type: functional, cell-based; settings: MCF7, 72 h
[16] = Inhibition of LPS-stimulated NO production in mouse RAW264.7 cells at 10 uM incubated for 24 hrs by Griess reagent based microplate reader analysis relative to control; assay type: functional
[17] = Toxicity in BALB/c mouse xenografted with human MCF7 cells assessed as decrease in body weight at 1.5 mg/kg, iv administered for 10 days followed by ultrasonic sound treatment for 2 to 6 hrs and measured immediately; assay type: organism-based; settings: in vivo, time 242-246 hrs
[18] = Toxicity in BALB/c mouse xenografted with human MCF7 cells assessed as heart damage at 1.2 mg/kg, iv administered for 10 days followed by ultrasonic sound treatment for 2 to 6 hrs and measured immediately by Hand E staining based analysis; assay type: organism-based; settings: in vivo, time 242-246 hrs
[19] = Toxicity in BALB/c mouse xenografted with human MCF7 cells assessed as kidney damage at 1.2 mg/kg, iv administered for 10 days and measured immediately by Hand E staining based analysis; assay type: organism-based; settings: in vivo, 240 h, time 10 day
[20] = Drug uptake in BALB/c mouse tumor xenografted with human MCF7 cells assessed as accumulation of red fluorescence at 1.5 mg/kg, iv measured at 6 hrs by fluorescence imaging analysis; assay type: ADME, organism-based, Neoplasm; settings: in vivo
[21] = Toxicity in BALB/c mouse xenografted with human MCF7 cells assessed as liver damage at 1.2 mg/kg, iv administered for 10 days followed by ultrasonic sound treatment for 2 to 6 hrs and measured immediately by Hand E staining based analysis; assay type: organism-based; settings: in vivo, time 242-246 hrs
[22] = system: MCF7; experiment: Induction of ROS generation in human MCF7 cells assessed as increase in ROS level incubated for 4 hrs by DCFH-DA dye based flow cytometry analysis (Rvb=2.9%); assay type: functional
[23] = Toxicity in BALB/c mouse xenografted with human MCF7 cells assessed as spleen damage at 1.2 mg/kg, iv administered for 10 days and measured immediately by Hand E staining based analysis; assay type: organism-based; settings: in vivo, 240 h, time 10 day
[24] = Inhibition of LPS-stimulated NO production in mouse RAW264.7 cells incubated for 24 hrs by Griess reagent based microplate reader analysis; assay type: functional, cell-based; settings: RAW264.7, 24 h
[25] = Toxicity in BALB/c mouse xenografted with human MCF7 cells assessed as drug tolerance at 1.5 mg/kg, iv administered for 10 days followed by ultrasonic sound treatment for 2 to 6 hrs and measured immediately; assay type: organism-based; settings: in vivo, time 242-246 hrs
[26] = Toxicity in BALB/c mouse xenografted with human MCF7 cells assessed as lung damage at 1.2 mg/kg, iv administered for 10 days followed by ultrasonic sound treatment for 2 to 6 hrs and measured immediately by Hand E staining based analysis; assay type: organism-based; settings: in vivo, time 242-246 hrs
[27] = system: MCF7; experiment: Induction of apoptosis in human MCF7 cells assessed as necrotic cells preincubated for 4 hrs followed by ultrasonic sound treatment for 30 sec and measured after 24 hrs by Annexin V-FITC/propidium iodide double staining based flow cytometry analysis (reference value: 1.05%); assay type: functional; settings: 28 h
[28] = system: MCF7; experiment: Induction of apoptosis in human MCF7 cells assessed as viable cells preincubated for 4 hrs followed by ultrasonic sound treatment for 30 sec and measured after 24 hrs by Annexin V-FITC/propidium iodide double staining based flow cytometry analysis (reference value: […]); assay type: functional; settings: 28 h
[29] = Drug uptake in BALB/c mouse skin xenografted with human MCF7 cells assessed as accumulation of red fluorescence at 1.5 mg/kg, iv measured at 6 hrs by fluorescence imaging analysis; assay type: ADME, organism-based, Skin of body; settings: in vivo
[30] = system: MCF7; experiment: Sono-cytotoxicity against human MCF7 cells assessed as inhibition of cell growth preincubated for 4 hrs followed by ultrasonic sound treatment for 30 sec by MTT assay; assay type: functional, cell-based
[31] = system: MCF7; experiment: Effect of IL-6 protein level in human MCF7 cells at 10 uM measured for 24 hrs by ELISA analysis; assay type: functional, cell-based
[32] = Induction of hyperthermia in solvent assessed as increase in temperature at 10 uM treated with ultrasonic sound for 2 mins and measured after 5 mins; settings: time 7.0 min
[33] = system: MCF7; experiment: Induction of ROS generation in human MCF7 cells assessed as increase in ROS level preincubated for 4 hrs followed by ultrasonic sound treatment for 30 sec by DCFH-DA dye based flow cytometry analysis (Rvb= 3.5%); assay type: functional; settings: time 14430 sec; 4.008 h
[34] = Toxicity in BALB/c mouse xenografted with human MCF7 cells assessed as lung damage at 1.2 mg/kg, iv administered for 10 days and measured immediately by Hand E staining based analysis; assay type: organism-based; settings: in vivo, 240 h, time 10 day
[35] = system: Mus musculus; experiment: Induction of hyperthermia in BALB/c mouse xenografted with human MCF7 cells assessed as burning of skin at 1.2 mg/kg, iv administered for 10 days followed by ultrasonic sound treatment for 2 to 6 hrs and measured immediately; assay type: functional, organism-based; settings: time 242-246 hrs
[36] = Downregulation of IL-6 expression level in serum of BALB/c mouse at 1.5 mg/kg, iv measured at 12 to 24 hrs; assay type: functional; settings: time 12-24 hrs
[37] = system: MCF7; experiment: Cytotoxicity against human MCF7 cells assessed as inhibition of cell growth more than 1 uM measured for 72 hrs by MTT assay; assay type: functional, cell-based
[38] = system: MCF7; experiment: Induction of ROS generation in human MCF7 cells assessed as increase in red fluorescence incubated for 4 hrs by Hoechst 33342 staining based confocal microscopic analysis; assay type: functional, cell-based
[39] = Toxicity in BALB/c mouse xenografted with human MCF7 cells assessed as heart damage at 1.2 mg/kg, iv administered for 10 days and measured immediately by Hand E staining based analysis; assay type: organism-based; settings: in vivo, 240 h, time 10 day
[40] = Toxicity in BALB/c mouse xenografted with human MCF7 cells assessed as spleen damage at 1.2 mg/kg, iv administered for 10 days followed by ultrasonic sound treatment for 2 to 6 hrs and measured immediately by Hand E staining based analysis; assay type: organism-based; settings: in vivo, time 242-246 hrs

In the case of `COc1cc(/C=C/C(=O)CC(=O)/C=C/c2ccc(O)c(OC)c2)ccc1O`, the Activity [1] is reported as “Active”.

In the case of `C=CC1=C(C)c2cc3[nH]c(cc4nc(cc5[nH]c(cc1n2)c(C)c5CCC(=O)O)C(CCC(=O)O)=C4C)c(C)c3C=C`, the Activity [1] is reported as “Active”.

In the case of `COc1cc(/C=C/c2ccc(N(c3ccccc3)c3ccc(-c4ccc(-c5ccc(N(c6ccccc6)c6ccc(/C=C/c7cc(OC)cc(OC)c7)cc6)cc5)c5nsnc45)cc3)cc2)cc(OC)c1`, the Activity [2] is reported as “inactive”, the Activity [3] is reported as “Non-Toxic” and the IC50 [4] is reported as 290 nM. The Drug uptake [5] was “Active”, the Activity [6] was 70% and the Activity [7] was “Active”. The inhibition [8] was “Active”, the Activity [9] was “inactive” and the IC50 [10] was 550 nM. The IC50 [1] was 1600 nM, the inhibition in vivo at 1.5 mg/kg [11] was 70% and the Activity [12] was “Active”. For the same compound, the Activity [13] was 0.29%, the Activity [14] was “Non-Toxic” and the IC50 [15] was 2400 nM. The inhibition at 10 µM [16] was 76%, the Activity [17] was “Non-Toxic” and the Activity [18] was “Non-Toxic”. The Activity [19] was “Non-Toxic”, the Drug uptake [20] was “Active” and the Activity [21] was “Non-Toxic”. For the same compound, the Activity [22] was 12.4%, the Activity [23] was “Non-Toxic” and the EC50 [24] was 68.9 nM. For the same compound, the Activity [25] was “Non-Toxic”, the Activity [26] was “Non-Toxic” and the Activity [27] was 0.045%. The Activity [28] was 29.7%, the Drug uptake [29] was “Active” and the IC50 [30] was 1600 nM. For the same compound, the Activity [31] was “Active”, the T [32] was 3.9 °C and the Activity [33] was 92.8%. The Activity [34] was “Non-Toxic”, the Activity [35] was “Active” and the Activity [36] was 42%. The Activity [37] was “Active”, the Activity [38] was “Active” and the Activity [39] was “Non-Toxic”. For the same compound, the Activity [40] was “Non-Toxic”.

In the case of `COc1cc(/C=C/c2ccc(N(c3ccc(Br)cc3)c3ccc(-c4ccc(-c5cccs5)c5nsnc45)cc3)cc2)cc(OC)c1`, the Activity [2] is reported as “inactive”, the IC50 [4] is reported as 1200 nM and the Activity [6] is reported as 87.5%. The inhibition [8] was “Active”, the Activity [9] was “inactive” and the IC50 [10] was 2000 nM. It also gave an Activity [13] of 1.74%, an IC50 [15] of 9200 nM and an inhibition at 10 µM [16] of 48%. It also gave an Activity [22] of 4.5%, an EC50 [24] of 72.9 nM and an Activity [27] of 4.37%. It also gave an Activity [28] of 56.4%, an IC50 [30] of 4200 nM and a T [32] of 3.4 °C. For the same compound, the Activity [33] was 48.1%, the Activity [37] was “Active” and the Activity [38] was “Active”.

For `COc1cc(/C=C/c2ccc(N(c3ccc(/C=C/c4cc(OC)cc(OC)c4)cc3)c3ccc(-c4ccc(-c5ccc(N(c6ccc(/C=C/c7cc(OC)cc(OC)c7)cc6)c6ccc(/C=C/c7cc(OC)cc(OC)c7)cc6)cc5)c5nsnc45)cc3)cc2)cc(OC)c1`, the Activity [2] was “inactive”, the IC50 [4] was 610 nM and the Activity [6] was 28.7%. The inhibition [8] was “Active”, the Activity [9] was “inactive” and the IC50 [10] was 830 nM. For the same compound, the IC50 [1] was 3500 nM, the Activity [13] was 3.59% and the IC50 [15] was 3600 nM. For the same compound, the inhibition at 10 µM [16] was 72%, the Activity [22] was 5.8% and the EC50 [24] was 217 nM. The Activity [27] was 2.33%, the Activity [28] was 35.4% and the IC50 [30] was 3500 nM. For the same compound, the T [32] was 5.9 °C, the Activity [33] was 97.5% and the Activity [37] was “Active”. For the same compound, the Activity [38] was “Active”.
